Measurements reported in ChEMBL document CHEMBL2331362, “Identification of N-acyl 4-(5-pyrimidine-2,4-dionyl)phenylalanine derivatives and their orally active prodrug esters as dual-acting alpha4-beta1 and alpha4-beta7 receptor antagonists” (Bioorg Med Chem Lett, 2013).
Calls of active or inactive are those of the source. No cut-off for these calls is given here.

Tests used:
[1] = tested on: Rattus norvegicus; experiment: Oral bioavailability in rat assessed as (S)-2-(2,6-difluorobenzamido)-3-(4-(1,3,6-trimethyl-2,4-dioxo-1,2,3,4-tetrahydropyrimidin-5-yl)phenyl)propanoic acid level at 50 mg/kg; assay type: ADME, organism-based; conditions: in vivo
[2] = Apparent permeability across human Caco2 cells; assay type: ADME, cell-based; conditions: Caco-2
[3] = tested on: Rattus norvegicus; experiment: Cmax in rat assessed as (S)-2-(2,6-difluorobenzamido)-3-(4-(1,3,6-trimethyl-2,4-dioxo-1,2,3,4-tetrahydropyrimidin-5-yl)phenyl)propanoic acid level at 50 mg/kg, po; assay type: ADME, organism-based; set-up: dose 50 mg/kg, route oral; conditions: in vivo
[4] = tested on: Cynomolgus monkey; experiment: Antiinflammatory activity in atopic cynomolgus monkey challenged with aerosolized Ascaris suum extract assessed as reduction in lymphocytes influx into lungs at 1 and 30 mg/kg, po administered 4 hrs before antigen challenge measured 48 hrs after antigen challenge; assay type: functional, organism-based; set-up: dose 30 mg/kg; conditions: Macaca fascicularis
[5] = tested on: Rattus norvegicus; experiment: Tmax in rat assessed as (S)-2-(2,6-difluorobenzamido)-3-(4-(1,3,6-trimethyl-2,4-dioxo-1,2,3,4-tetrahydropyrimidin-5-yl)phenyl)propanoic acid level at 50 mg/kg, po; assay type: ADME, organism-based; set-up: dose 50 mg/kg, route oral; conditions: in vivo
[6] = tested on: Mus musculus; experiment: Oral bioavailability in mouse assessed as (S)-2-(2,6-difluorobenzamido)-3-(4-(1,3,6-trimethyl-2,4-dioxo-1,2,3,4-tetrahydropyrimidin-5-yl)phenyl)propanoic acid level at 50 mg/kg; assay type: ADME, organism-based; conditions: in vivo
[7] = tested on: Cynomolgus monkey; experiment: Cmax in cynomolgus monkey assessed as (S)-2-(2,6-difluorobenzamido)-3-(4-(1,3,6-trimethyl-2,4-dioxo-1,2,3,4-tetrahydropyrimidin-5-yl)phenyl)propanoic acid level at 30 mg/kg, po; assay type: ADME, organism-based, Macaca fascicularis; set-up: dose 30 mg/kg, route oral; conditions: in vivo
[8] = Oral bioavailability in rat; assay type: ADME, organism-based; conditions: in vivo
[9] = tested on: Cynomolgus monkey; experiment: AUC (0 to 24 hrs) in cynomolgus monkey assessed as (S)-2-(2,6-difluorobenzamido)-3-(4-(1,3,6-trimethyl-2,4-dioxo-1,2,3,4-tetrahydropyrimidin-5-yl)phenyl)propanoic acid level at 30 mg/kg, po; assay type: ADME, organism-based, Macaca fascicularis, Plasma; set-up: time < 24 hr, dose 30 mg/kg, route oral; conditions: in vivo
[10] = tested on: Rattus norvegicus; experiment: AUC (0 to 24 hrs) in rat assessed as (S)-2-(2,6-difluorobenzamido)-3-(4-(1,3,6-trimethyl-2,4-dioxo-1,2,3,4-tetrahydropyrimidin-5-yl)phenyl)propanoic acid level at 50 mg/kg, po; assay type: ADME, organism-based, Plasma; set-up: time < 24 hr, dose 50 mg/kg, route oral; conditions: in vivo
[11] = tested on: Cynomolgus monkey; experiment: Antiinflammatory activity in atopic cynomolgus monkey challenged with aerosolized Ascaris suum extract assessed as reduction in neutrophils influx into lungs at 1 and 30 mg/kg, po administered 4 hrs before antigen challenge measured 48 hrs after antigen challenge; assay type: functional, organism-based; set-up: dose 30 mg/kg; conditions: Macaca fascicularis
[12] = tested on: Canis familiaris; experiment: Tmax in dog assessed as (S)-2-(2,6-difluorobenzamido)-3-(4-(1,3,6-trimethyl-2,4-dioxo-1,2,3,4-tetrahydropyrimidin-5-yl)phenyl)propanoic acid level at 50 mg/kg, po; assay type: ADME, organism-based, Canis lupus familiaris; set-up: dose 50 mg/kg, route oral; conditions: in vivo
[13] = tested on: Canis familiaris; experiment: Oral bioavailability in dog assessed as (S)-2-(2,6-difluorobenzamido)-3-(4-(1,3,6-trimethyl-2,4-dioxo-1,2,3,4-tetrahydropyrimidin-5-yl)phenyl)propanoic acid level at 50 mg/kg; assay type: ADME, organism-based, Canis lupus familiaris; conditions: in vivo
[14] = tested on: Canis familiaris; experiment: AUC (0 to 24 hrs) in dog assessed as (S)-2-(2,6-difluorobenzamido)-3-(4-(1,3,6-trimethyl-2,4-dioxo-1,2,3,4-tetrahydropyrimidin-5-yl)phenyl)propanoic acid level at 50 mg/kg, po; assay type: ADME, organism-based, Canis lupus familiaris, Plasma; set-up: time < 24 hr, dose 50 mg/kg, route oral; conditions: in vivo
[15] = tested on: Mus musculus; experiment: Tmax in mouse assessed as (S)-2-(2,6-difluorobenzamido)-3-(4-(1,3,6-trimethyl-2,4-dioxo-1,2,3,4-tetrahydropyrimidin-5-yl)phenyl)propanoic acid level at 50 mg/kg, po; assay type: ADME, organism-based; set-up: dose 50 mg/kg, route oral; conditions: in vivo
[16] = tested on: Canis familiaris; experiment: Cmax in dog assessed as (S)-2-(2,6-difluorobenzamido)-3-(4-(1,3,6-trimethyl-2,4-dioxo-1,2,3,4-tetrahydropyrimidin-5-yl)phenyl)propanoic acid level at 50 mg/kg, po; assay type: ADME, organism-based, Canis lupus familiaris; set-up: dose 50 mg/kg, route oral; conditions: in vivo
[17] = tested on: Cynomolgus monkey; experiment: Oral bioavailability in cynomolgus monkey assessed as (S)-2-(2,6-difluorobenzamido)-3-(4-(1,3,6-trimethyl-2,4-dioxo-1,2,3,4-tetrahydropyrimidin-5-yl)phenyl)propanoic acid level at 30 mg/kg; assay type: ADME, organism-based, Macaca fascicularis; conditions: in vivo
[18] = tested on: Mus musculus; experiment: AUC (0 to 24 hrs) in mouse assessed as (S)-2-(2,6-difluorobenzamido)-3-(4-(1,3,6-trimethyl-2,4-dioxo-1,2,3,4-tetrahydropyrimidin-5-yl)phenyl)propanoic acid level at 50 mg/kg, po; assay type: ADME, organism-based, Plasma; set-up: time < 24 hr, dose 50 mg/kg, route oral; conditions: in vivo
[19] = tested on: Cynomolgus monkey; experiment: Tmax in cynomolgus monkey assessed as (S)-2-(2,6-difluorobenzamido)-3-(4-(1,3,6-trimethyl-2,4-dioxo-1,2,3,4-tetrahydropyrimidin-5-yl)phenyl)propanoic acid level at 30 mg/kg, po; assay type: ADME, organism-based, Macaca fascicularis; set-up: dose 30 mg/kg, route oral; conditions: in vivo
[20] = tested on: Mus musculus; experiment: Cmax in mouse assessed as (S)-2-(2,6-difluorobenzamido)-3-(4-(1,3,6-trimethyl-2,4-dioxo-1,2,3,4-tetrahydropyrimidin-5-yl)phenyl)propanoic acid level at 50 mg/kg, po; assay type: ADME, organism-based; set-up: dose 50 mg/kg, route oral; conditions: in vivo
[21] = tested on: Cynomolgus monkey; experiment: Antiinflammatory activity in atopic cynomolgus monkey challenged with aerosolized Ascaris suum extract assessed as reduction in eosinophils influx into lungs at 1 and 30 mg/kg, po administered 4 hrs before antigen challenge measured 48 hrs after antigen challenge; assay type: functional, organism-based; set-up: dose 30 mg/kg; conditions: Macaca fascicularis
[22] = Distribution coefficient, log D of the compound; assay type: physicochemical; conditions: octanol/water

## CCOC(=O)[C@H](Cc1ccc(-c2c(C)n(C)c(=O)n(C)c2=O)cc1)NC(=O)c1c(F)cccc1F
[1]
  F: 9%
[2]
  Papp: 26.9 ×10⁻⁶ cm/s
[3]
  Cmax: 5287 ng/mL
[4]
  Activity: Active
[5]
  Tmax: 1.3 h
[6]
  F: 22%
[7]
  Cmax: 337 ng/mL
[8]
  bioavailability: 9%
[9]
  AUC: 3146 ng·h/mL
[10]
  AUC: 18097 ng·h/mL
[11]
  Activity: Active
[12]
  Tmax: 1 h
[13]
  F: 6%
[14]
  AUC: 1690 ng·h/mL
[15]
  Tmax: 0.25 h
[16]
  Cmax: 471 ng/mL
[17]
  F: 7%
[18]
  AUC: 8547 ng·h/mL
[19]
  Tmax: 2 h
[20]
  Cmax: 2988 ng/mL
[21]
  Activity: Active
[22]
  logD: 1.73
